Data published in the NIST ThermoML archive (doi:10.1016/j.jct.2005.07.016).
Numbers after ± are expanded uncertainties.

Columns and labels:
[1] = Liquid
[2] = refractive index (Na D-line) (dimensionless); conditions: 298.15 K; 101.33 kPa; Liquid; Standard Abbe refractometry

Compound | vapor or sublimation pressure ([1]; 298.15 K) [kPa] | vapor or sublimation pressure ([1]; 303.15 K) [kPa] | vapor or sublimation pressure ([1]; 308.15 K) [kPa] | vapor or sublimation pressure ([1]; 313.15 K) [kPa] | refractive index [2] | vapor or sublimation pressure ([1]; 292.85 K) [kPa] | vapor or sublimation pressure ([1]; 295.55 K) [kPa] | vapor or sublimation pressure ([1]; 302.35 K) [kPa] | vapor or sublimation pressure ([1]; 306.25 K) [kPa] | vapor or sublimation pressure ([1]; 309.95 K) [kPa] | vapor or sublimation pressure ([1]; 313.65 K) [kPa] | vapor or sublimation pressure ([1]; 291.95 K) [kPa] | vapor or sublimation pressure ([1]; 295.15 K) [kPa] | vapor or sublimation pressure ([1]; 299.35 K) [kPa] | vapor or sublimation pressure ([1]; 307.05 K) [kPa] | vapor or sublimation pressure ([1]; 310.45 K) [kPa] | vapor or sublimation pressure ([1]; 316.75 K) [kPa]
CC(Cl)(Cl)Cl [1,1,1-trichloroethane] | 16.69 ± 0.35 | 20.34 ± 0.41 | 25.22 ± 0.49 | 30.78 ± 0.57 | 1.4354 ± 0.0007 | – | – | – | – | – | – | – | – | – | – | – | –
ClCCCl [1,2-dichloroethane] | 10.47 ± 0.25 | 13.34 ± 0.91 | 16.77 ± 1.1 | 20.88 ± 1.3 | 1.4421 ± 0.0007 | 8.09 ± 0.21 | 9.23 ± 0.23 | 12.81 ± 0.29 | 15.46 ± 0.33 | 18.17 ± 0.37 | 21.29 ± 0.42 | – | – | – | – | – | –
O=C1CCCC1 [cyclopentanone] | 1.61 ± 0.33 | 2.03 ± 0.11 | 2.68 ± 0.38 | 3.41 ± 0.13 | 1.4347 ± 0.0007 | – | – | – | – | – | – | 1.16 ± 0.1 | 1.5 ± 0.1 | 1.65 ± 0.11 | 2.6 ± 0.12 | 3 ± 0.13 | 4.03 ± 0.14
